Article PMC4874602 (ACS Infectious Diseases, 2016)
Values joined by “and” are separate entries in the source; they are usually repeats but may differ in a detail not shown here. Equal values may be shown once. Read-outs that look alike come from different tables or passages of the source.

Columns and labels:
in vivo [1] = details: BALB/c and C3HeB/FeJ, mouse
[2] = C3HeB/FeJ; for AUC168h: single 25 mg/kg oral dose of BDQ; for AUC8h: single 150 mg/kg oral dose of PZA
M. tuberculosis Erdman [3] = assay type: in vivo, Mycobacterium tuberculosis; details: BALB/c, 4 weeks of treatment
M. tuberculosis Erdman [4] = assay type: in vivo, Mycobacterium tuberculosis
in vivo [5] = details: C3HeB/FeJ, mouse, po; for half-life: t1/2, C3HeB/FeJ
in vivo [6] = details: BALB/c, mouse, po; for half-life: t1/2, BALB/c
[7] = BALB/c; for AUC168h: single 25 mg/kg oral dose of BDQ; for AUC8h: single 150 mg/kg oral dose of PZA
THP-1 cells = details: 30 min exposure, 1 mM PZA, 0.4 mM POA
[8] = C3HeB/FeJ less-responsive subpopulation, BDQ 10 mg/kg
[9] = 25 mg/kg, AUCUL/AUCplasma, uninvolved lung, single 25 mg/kg oral dose of BDQ
[10] = 25 mg/kg, AUCWL/AUCplasma, whole lung, single 25 mg/kg oral dose of BDQ
[11] = 25 mg/kg, plasma, single 25 mg/kg oral dose of BDQ
[12] = 25 mg/kg, uninvolved lung, single 25 mg/kg oral dose of BDQ
[13] = 25 mg/kg, whole lung, single 25 mg/kg oral dose of BDQ
[14] = 25 mg/kg, lesion (type I), single 25 mg/kg oral dose of BDQ
[15] = 25 mg/kg, lesion (type III), single 25 mg/kg oral dose of BDQ
[16] = 150 mg/kg, AUCUL/AUCplasma, uninvolved lung, single 150 mg/kg oral dose of PZA
[17] = 150 mg/kg, AUCWL/AUCplasma, whole lung, single 150 mg/kg oral dose of PZA
[18] = 150 mg/kg, plasma, single 150 mg/kg oral dose of PZA
[19] = 150 mg/kg, uninvolved lung, single 150 mg/kg oral dose of PZA
[20] = 150 mg/kg, whole lung, single 150 mg/kg oral dose of PZA
[21] = 150 mg/kg, lesion (type I), single 150 mg/kg oral dose of PZA
[22] = 150 mg/kg, plasma, single 150 mg/kg oral dose of PZA, 2.5–8 h terminal
[23] = 150 mg/kg, lesion (type III), single 150 mg/kg oral dose of PZA

With `COc1nc2ccc(Br)cc2cc1[C@@H](c1ccccc1)[C@@](O)(CCN(C)C)c1cccc2ccccc12` [BDQ, bedaquiline] the Tmax (in vivo [1]; 25 mg/kg) was 3 h, the “concentration in dissected caseum of type I granulomas (LC/MS/MS)” value ([2]; 8 h following a single 25 mg/kg dose of BDQ, preliminary) was 974.5 ng/g and the AUC168h ([2]; lesion (type I)) was 387.1 µg·h/g. For the same molecule, the AUC168h ([2]; uninvolved lung) was 653.9 µg·h/g, the AUC168h ([2]; whole lung) was 739.42 µg·h/g and the “log10 CFU reduction in lungs” value (M. tuberculosis Erdman [3]; BDQ 10 mg/kg oral gavage) was 3.1 log10 CFU. For the same molecule, the “log10 CFU reduction in lungs” value (M. tuberculosis Erdman [3]; BDQ 25 mg/kg oral gavage) was 4.1 log10 CFU, the “activity against the less-responsive subpopulation” value (M. tuberculosis Erdman [4]; [8]) was “only bacteriostatic” and the “rate of decrease in log10 CFU in the lungs between 4 and 8 weeks of treatment” value (shortened to “rate of decrease in log10 CFU”) (M. tuberculosis Erdman [4]; [8]) was 0.0129 log10 CFU/week. For the same molecule, the “rate of decrease in log10 CFU” value (M. tuberculosis Erdman [4]; C3HeB/FeJ responsive subpopulation, BDQ 10 mg/kg) was 0.4392 log10 CFU/week, the “rate of decrease in log10 CFU” value (M. tuberculosis Erdman [4]; C3HeB/FeJ responsive subpopulation, BDQ 25 mg/kg) was 0.3606 log10 CFU/week and the AUC(0-t) (in vivo [5]; 25 mg/kg) was 35900 ng·h/mL. It also gave a Kp (in vivo [5]; 25 mg/kg, AUCLes/AUCplasma, lesion (type I), single 25 mg/kg oral dose of BDQ) of 10.8, a Kp (in vivo [5]; [9]) of 18.2 and a Kp (in vivo [5]; [10]) of 20.6. For the same molecule, the Cmax (in vivo [5]; 25 mg/kg, lesion (caseous necrotic granuloma, type I), single 25 mg/kg oral dose of BDQ) was 10100 ng/g, the Cmax (in vivo [5]; [11]) was 2720 ng/mL and the Cmax (in vivo [5]; [12]) was 23300 ng/g. It also gave a Cmax (in vivo [5]; [13]) of 22900 ng/g, a half-life (in vivo [5]; [14]) of 104 h and a half-life (in vivo [5]; [12]) of 84.1 h. It also gave a half-life (in vivo [5]; [13]) of 130 h, a Tmax (in vivo [5]; [14]) of 8 h and a Tmax (in vivo [5]; [11]) of 4 h. It also gave a Tmax (in vivo [5]; [12]) of 8 h, a Tmax (in vivo [5]; [13]) of 8 h and an AUC(0-t) (in vivo [6]; 25 mg/kg) of 33700 ng·h/mL. For the same molecule, the Kp (in vivo [6]; 25 mg/kg, AUCLes/AUCplasma, lesion (type III), single 25 mg/kg oral dose of BDQ) was 28.2, the Kp (in vivo [6]; [9]) was 28.4 and the Kp (in vivo [6]; [10]) was 20.6. The Cmax (in vivo [6]; 25 mg/kg, lesion (cellular non-necrotizing, type III), single 25 mg/kg oral dose of BDQ) was 31700 ng/g, the Cmax (in vivo [6]; [12]) was 36000 ng/g and the Cmax (in vivo [6]; [13]) was 22100 ng/g. For the same molecule, the half-life (in vivo [6]; [15]) was 85.5 h, the half-life (in vivo [6]; [12]) was 67.4 h and the half-life (in vivo [6]; [13]) was 74.5 h. The Tmax (in vivo [6]; [15]) was 8 h, the Tmax (in vivo [6]; [13]) was 8 h and the AUC168h ([7]; lesion (type III), 25 mg/kg) was 949 µg·h/g and 949.6 µg·h/g. It also gave an AUC168h ([7]; uninvolved lung) of 956.6 µg·h/g and an AUC168h ([7]; whole lung) of 694.0 µg·h/g.
Molecule `O=C(O)c1cnccn1` [POA, pyrazinoic acid] has a Tmax (in vivo [1]; 150 mg/kg) of 0.5 to 1 h, an AUC8h ([2]; lesion (type I)) of 75.1 µg·h/g and an AUC8h ([2]; uninvolved lung) of 30.4 µg·h/g. It also gave an AUC8h ([2]; whole lung) of 43.9 µg·h/g, an AUC(0-t) (in vivo [5]; 150 mg/kg) of 58700 ng·h/mL and a Kp (in vivo [5]; 150 mg/kg, AUCLes/AUCplasma, lesion (type I), single 150 mg/kg oral dose of PZA) of 1.28. The Kp (in vivo [5]; [16]) was 0.52, the Kp (in vivo [5]; [17]) was 0.75 and the Cmax (in vivo [5]; 150 mg/kg, lesion (caseous necrotic granuloma, type I), single 150 mg/kg oral dose of PZA) was 12500 ng/g. It also gave a Cmax (in vivo [5]; [18]) of 14200 ng/mL, a Cmax (in vivo [5]; [19]) of 8300 ng/g and a Cmax (in vivo [5]; [20]) of 9000 ng/g. The half-life (in vivo [5]; [21]) was 12.1 h, the half-life (in vivo [5]; [22]) was 2.4 h and the half-life (in vivo [5]; [19]) was 3.9 h. The half-life (in vivo [5]; [20]) was 5.13 h, the Tmax (in vivo [5]; [21]) was 1 h and the Tmax (in vivo [5]; [18]) was 0.75 h. It also gave a Tmax (in vivo [5]; [19]) of 1 h, a Tmax (in vivo [5]; [20]) of 1 h and an AUC(0-t) (in vivo [6]; 150 mg/kg) of 127000 ng·h/mL. It also gave a Kp (in vivo [6]; 150 mg/kg, AUCLes/AUCplasma, lesion (type III), single 150 mg/kg oral dose of PZA) of 0.78, a Kp (in vivo [6]; [16]) of 0.31 and a Kp (in vivo [6]; [17]) of 0.42. For the same molecule, the Cmax (in vivo [6]; 150 mg/kg, lesion (cellular non-necrotizing, type III), single 150 mg/kg oral dose of PZA) was 25000 ng/g, the Cmax (in vivo [6]; [18]) was 42500 ng/mL and the Cmax (in vivo [6]; [19]) was 10300 ng/g. The Cmax (in vivo [6]; [20]) was 14700 ng/g, the half-life (in vivo [6]; [23]) was 0.83 h and the half-life (in vivo [6]; [22]) was 1.24 h. It also gave a half-life (in vivo [6]; [19]) of 0.24 h, a half-life (in vivo [6]; [20]) of 0.24 h and a Tmax (in vivo [6]; [23]) of 1 h. For the same molecule, the Tmax (in vivo [6]; [18]) was 0.5 h, the Tmax (in vivo [6]; [19]) was 0.5 h and the Tmax (in vivo [6]; [20]) was 0.5 h. The “accumulation within THP-1 cells” value (THP-1 cells) was “accumulated to a very low degree”, the AUC8h ([7]; lesion (type III)) was 99.5 µg·h/g and the AUC8h ([7]; uninvolved lung) was 39.0 µg·h/g. It also gave an AUC8h ([7]; whole lung) of 53.7 µg·h/g.
